Columns and labels:
LePentR50 promastigotes = experiment: Pentamidine accumulation assay by HPLC; format: cell-based, Leishmania enriettii; conditions: 0.84 mM pentamidine, 3 hr
Method: The effect of flavonoid dimers on accumulation of pentamidine was investigated. […] After 3 hrs of incubation, the parasites were washed three times with cold PBS, pH 7.4. The cell pellet was then dissolved in 350 μL 75% acetonitrile and lysed by repeated freeze-thaw cycles. After lysing, the lysed cell suspension was centrifuged at 14,000 g at 4° C. for 10 min. The supernatant was collected and ready for determining pentamidine concentration using HPLC (Agilent 1100 Series). The pentamidine pools were analyzed on Zorbax ODS C18 column (4.6 mm×25 cm, 5-micron) kept at 40° C. The mobile phase consisted of water (10 mM tetramethylammonium chloride (TMAC), 10 mM sodium heptanesulphonate (SHS), 4.2 mM phosphoric acid (PA)) for pump A and 75% acetonitrile (ACN) in water (10 mM TMAC, 10 mM SHS, 4.2 mM PA) for pump B. The column was equilibrated at 40° C. overnight before analyses. Using a flow rate of 1.0 mL/min and signal at 265 nm, analyses were made at 58% pump A and 42% pump B. The retention time of pentamidine is 3.2 min. Compound 9d would not be eluted out under these conditions. To generate a standard curve, a 200 μM stock solution of pentamidine isethionate salt were prepared by dissolving 2.5 mg pentamidine isethionate salt in 21 mL 75% ACN (10 mM TMAC, 10 mM SHS, 4.2 mM PA). Concentration of 100, 50, 25 and 13 μM were then made by serial dilution, allowing the generation of standard curve.

[1] = tested on: wild type L. donovani LdAG83 promastigotes; experiment: Leishmania cell viability (MTS) assay; format: cell-based, Leishmania donovani
P388/ADR cells = experiment: Doxorubicin accumulation; format: cell-based, murine; conditions: 10 μM doxorubicin, 2 h, FIG. 11A
Ld2001 amastigotes = experiment: Total antimony (SSG) accumulation assay using ICP-MS; format: cell-based, Leishmania donovani; conditions: 3 hr
Method: (§1) Amastigotes of L. donovani was prepared by spinning down 50 mL 4-day-old promastigotes (late log phase), and transferred to an axenic medium containing M199 Medium (Gibco), 0.5% Trypto casein soya, 3 mM L-cysteine, 15 mM D-glucose, 5 mM L-glutamine, 4 mM NaHCO3, 25 mM HEPES, 0.01 mM bathocuproine-disulfonic acid and 0.023 mM Hemin. Cells were then incubated at 37° C. for 24 hr. Amastigotes became ovoid in shape and were ready for drug accumulation assay.
(§2) The effect of flavonoid dimers on accumulation of antimony sodium stibogluconate (SSG) was investigated. Amastigotes are more susceptible to SSG and therefore accumulate more SSG as compared to promastigotes. Therefore, amastigotes were chosen for studying the Sb accumulation assay. […] After 3 hour incubation, the parasites were washed thrice with cold PBS, pH 7.4. The cell pellet was dissolved in 200 μL concentrated nitric acid for 24 hr at room temperature. The sample was diluted to 3 mL with distilled water, resulting in a final concentration of about 5 ppb of total Sb solution. It was then injected to ICP-MS (Perkin-Elmer) for quantitation. Antimony was measured at its m/z ratios of 121 and 123 with indium (In, m/z=115) as an internal standard. All chemicals used for the pretreatment of the samples were of at least analytical grade and the distilled water used directly as received without further purification.

Ld39 amastigotes = experiment: as above; format: cell-based, Leishmania donovani; conditions: 3 hr
Method: as §1, §2

LdAG83 amastigotes = experiment: as above; format: cell-based, Leishmania donovani; conditions: 9d 30 μM or 60 μM
Method: as §1, §2

O=c1cc(-c2ccc(OCCOCCOCCOCCOc3ccc(-c4cc(=O)c5c(O)cc(O)cc5o4)cc3)cc2)oc2cc(O)cc(O)c12 [Compound 9d, 1,13-Bis[4′-((5,7-dihydroxy)-4H-chromen-4-on-2-yl)phenyl]-1,4,7,10,13-pentaoxamidecane]
intracellular pentamidine concentration (LePentR50 promastigotes; 15 μM 9d): 2.95±0.01 μM pentamidine/mg protein
intracellular pentamidine concentration (LePentR50 promastigotes; 30 μM 9d): 4.69±0.51 μM pentamidine/mg protein
intracellular pentamidine concentration (LePentR50 promastigotes; 60 μM 9d): 26.6±0.6 μM pentamidine/mg protein
modulating effect on SSG sensitivity ([1]; LdAG83, up to 6 μM, FIG. 17C): did not have any modulating effect
modulatory effect on SSG sensitivity ([1]; SSG-sensitive wild type LdAG83, FIG. 14D): no modulatory effect
IC50 ([1]; cytotoxicity of compound alone, 72 hrs, read-out: IC50(μM) of synthetic flavonoid, LdAG83): 7 ± 0.4 µM
increase of doxorubicin accumulation, folds of control (P388/ADR cells): about 2 folds
SSG accumulation, % of that of LdAG83 (Ld2001 amastigotes; 30 μM 9d): 83%
SSG accumulation, % of that of LdAG83 (Ld2001 amastigotes; 60 μM 9d): 69%
SSG accumulation, % of that of LdAG83 (Ld39 amastigotes; 30 μM 9d): 74%
SSG accumulation, % of that of LdAG83 (Ld39 amastigotes; 60 μM 9d): 90%
accumulation of SSG versus cells without treatment (LdAG83 amastigotes): did not significantly differ

Source: US8710097B2, “Flavonoid dimers and methods of making and using such” (The Hong Kong Polytechnic University, priority 2006, dated 2014)
